The target of one test is human Cathepsin S (Homo sapiens (Human), UniProt P25774). Briefly: Cathepsin enzyme inhibition assay (fluorogenic peptide substrate), human Cat S. The format is biochemical. The conditions noted are these: human Cat S 1 nM, substrate Z-Val-Val-Arg-AMC 20 μM, pH 6.5. The procedure:
(§1) Cathepsin Enzyme Inhibition Assay
(§2) Enzyme activity is measured by observing the increase in fluorescence intensity caused by cleavage of a peptide substrate containing a fluorophore whose emission is quenched in the intact peptide.
(§3) Assay buffer: 100 mM potassium phosphate pH 6.5, EDTA-Na 5 mM, Triton X-100 0.001%, DTT 5 mM.
(§4) Enzymes (all at 1 nM): human and mouse Cathepsin S, Cat K, Cat B, Cat L.
(§5) Substrate (20 μM): Z-Val-Val-Arg-AMC, except for Cat K which uses Z-Leu-Arg-AMC (both from Bachem).
(§6) AMC=7-Amino-4-Methyl-Coumarin.
(§7) Excitation 360 nm, Emission 465 nm.
(§8) Enzyme is added to the substance dilutions in 96-well microtitre plates and the reaction is started with substrate. […] IC50 are calculated by standard methods.
(§9) Inhibition of human Cat S, mouse Cat S, human Cat K, human Cat B, human Cat L and mouse Cat L have been measured separately.

For the next test, the target named is human Cat L (Homo sapiens (Human), UniProt P07711). Briefly: Cathepsin enzyme inhibition assay (fluorogenic peptide substrate), human Cat L. The note with it: human Cat L 1 nM, substrate Z-Val-Val-Arg-AMC 20 μM, pH 6.5. The class given is biochemical. Here is the method:
as §1, §2, §3, §4, §5, §6, §7, §8, §9

The text below walks through data of patent US9409882B2, “Pyridine derivatives” (Hoffmann-La Roche Inc., priority 2012, dated 2016).

pIC50: −log10 of the molar value.

Chain of human Cathepsin S (P25774 115-331): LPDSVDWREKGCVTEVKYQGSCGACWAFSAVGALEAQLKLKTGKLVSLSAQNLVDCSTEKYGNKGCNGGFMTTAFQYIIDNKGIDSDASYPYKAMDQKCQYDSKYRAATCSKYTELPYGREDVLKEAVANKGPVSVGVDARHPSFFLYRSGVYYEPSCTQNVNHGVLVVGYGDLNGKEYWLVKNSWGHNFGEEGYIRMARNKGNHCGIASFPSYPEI
Chain of human Cat L (P07711 114-333): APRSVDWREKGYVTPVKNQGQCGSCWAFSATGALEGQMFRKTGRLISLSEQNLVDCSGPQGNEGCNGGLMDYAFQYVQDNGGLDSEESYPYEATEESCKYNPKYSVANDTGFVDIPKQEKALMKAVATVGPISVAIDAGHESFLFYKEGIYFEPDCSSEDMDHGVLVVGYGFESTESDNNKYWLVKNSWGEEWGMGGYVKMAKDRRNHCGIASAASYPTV

Regarding `COc1ccc(S(=O)(=O)[C@@H]2C[C@@H](C(=O)NC3(C#N)CC3)N(C(=O)C3(c4ccc(Cl)cn4)CC3)C2)c(Cl)c1` [Example 1, (2S,4R)-4-(2-Chloro-4-methoxy-benzenesulfonyl)-1-[1-(5-chloro-pyridin-2-yl)-cyclopropanecarbonyl]-pyrrolidine-2-carboxylic acid (1-cyano-cyclopropyl)-amide], the figures for the pIC50 on human Cathepsin S and against human Cat L were 9.22 and 6.39, respectively. For `N#CC1(NC(=O)[C@@H]2C[C@@H](S(=O)(=O)c3ccccc3Cl)CN2C(=O)C2(c3ccc(Cl)cn3)CC2)CC1` [Example 2, (2S,4R)-4-(2-Chloro-benzenesulfonyl)-1-[1-(5-chloro-pyridin-2-yl)-cyclopropanecarbonyl]-pyrrolidine-2-carboxylic acid (1-cyano-cyclopropyl)-amide], in that order: 9.31 and 6.47. For `N#CC1(NC(=O)[C@@H]2C[C@@H](S(=O)(=O)c3ccc(OCC(F)(F)F)cc3Cl)CN2C(=O)C2(c3ccc(Cl)cn3)CC2)CC1` [Example 3, (2S,4R)-1-[1-(5-Chloro-pyridin-2-yl)-cyclopropanecarbonyl]-4-[2-chloro-4-(2,2,2-trifluoro-ethoxy)-benzenesulfonyl]-pyrrolidine-2-carboxylic acid (1-cyano-cyclopropyl)-amide], in that order: 9.08 and 6.37. For `COc1ccc(S(=O)(=O)[C@@H]2C[C@@H](C(=O)NC3(C#N)CC3)N(C(=O)C3(c4ncc(Cl)cc4F)CC3)C2)c(Cl)c1` [Example 4, (2S,4R)-1-[1-(5-Chloro-3-fluoro-pyridin-2-yl)-cyclopropanecarbonyl]-4-(2-chloro-4-methoxy-benzenesulfonyl)-pyrrolidine-2-carboxylic acid (1-cyano-cyclopropyl)-amide] the same measures were 9.41 and 7.92. Consider `N#CC1(NC(=O)[C@@H]2C[C@@H](S(=O)(=O)c3ccccc3Cl)CN2C(=O)C2(c3ncc(Cl)cc3F)CC2)CC1` [Example 5, (2S,4R)-4-(2-Chloro-benzenesulfonyl)-1-[1-(5-chloro-3-fluoro-pyridin-2-yl)-cyclopropanecarbonyl]-pyrrolidine-2-carboxylic acid (1-cyano-cyclopropyl)-amide], for which the negative logarithm of the IC50 (pIC50) is 9.40 at human Cathepsin S and 7.89 against human Cat L.

In the case of `N#CC1(NC(=O)[C@@H]2C[C@@H](S(=O)(=O)c3ccc(OCC(F)(F)F)cc3Cl)CN2C(=O)C2(c3ncc(Cl)cc3F)CC2)CC1` [Example 6, (2S,4R)-1-[1-(5-Chloro-3-fluoro-pyridin-2-yl)-cyclopropanecarbonyl]-4-[2-chloro-4-(2,2,2-trifluoro-ethoxy)-benzenesulfonyl]-pyrrolidine-2-carboxylic acid (1-cyano-cyclopropyl)-amide], the pIC50 against human Cathepsin S was 9.17; against human Cat L, 7.35. For `COc1ccc(S(=O)(=O)[C@@H]2C[C@@H](C(=O)NC3(C#N)CC3)N(C(=O)C3(c4ncc(Br)cc4F)CC3)C2)c(Cl)c1` [Example 7, (2S,4R)-1-[1-(5-Bromo-3-fluoro-pyridin-2-yl)-cyclopropanecarbonyl]-4-(2-chloro-4-methoxy-benzenesulfonyl)-pyrrolidine-2-carboxylic acid (1-cyano-cyclopropyl)-amide], in that order: 9.13 and 7.59. For `N#CC1(NC(=O)[C@@H]2C[C@@H](S(=O)(=O)c3ccccc3Cl)CN2C(=O)C2(c3ncc(Br)cc3F)CC2)CC1` [Example 8, (2S,4R)-1-[1-(5-Bromo-3-fluoro-pyridin-2-yl)-cyclopropanecarbonyl]-4-(2-chloro-benzenesulfonyl)-pyrrolidine-2-carboxylic acid (1-cyano-cyclopropyl)-amide], in that order: 9.36 and 7.72. As to `N#CC1(NC(=O)[C@@H]2C[C@@H](Sc3cccc(-c4ccc(F)cc4)c3)CN2C(=O)C2(c3ncc(Cl)cc3F)CC2)CC1` [Example 9, (2S,4R)-1-[1-(5-Chloro-3-fluoro-pyridin-2-yl)-cyclopropanecarbonyl]-4-(4′-fluorobiphenyl-3-ylsulfanyl)-pyrrolidine-2-carboxylic acid (1-cyano-cyclopropyl)-amide], the pIC50 against human Cathepsin S was 7.93; on human Cat L it was 6.38. `N#CC1(NC(=O)[C@@H]2C[C@@H](Sc3ncccc3Cl)CN2C(=O)C2(c3ncc(Cl)cc3F)CC2)CC1` [Example 10, (2S,4R)-1-[1-(5-Chloro-3-fluoro-pyridin-2-yl)-cyclopropanecarbonyl]-4-(3-chloro-pyridin-2-ylsulfanyl)-pyrrolidine-2-carboxylic acid (1-cyano-cyclopropyl)-amide] had a pIC50 against human Cathepsin S of 6.02. Turning to `N#CC1(NC(=O)[C@@H]2C[C@@H](S(=O)(=O)c3ccc(F)cc3Cl)CN2C(=O)C2(c3ncc(Cl)cc3F)CC2)CC1` [Example 11, (2S,4R)-1-(1-(5-chloro-3-fluoropyridin-2-yl)cyclopropanecarbonyl)-4-(2-chloro-4-fluorophenylsulfonyl)-N-(1-cyanocyclopropyl)pyrrolidine-2-carboxamide], the pIC50 on human Cathepsin S is 9.22; against human Cat L it was 7.05. For `N#CC1(NC(=O)[C@@H]2C[C@@H](Sc3ccccn3)CN2C(=O)C2(c3ncc(Cl)cc3F)CC2)CC1` [Example 12, (2S,4R)-1-[1-(5-Chloro-3-fluoro-pyridin-2-yl)-cyclopropanecarbonyl]-4-(pyridin-2-ylsulfanyl)-pyrrolidine-2-carboxylic acid (1-cyano-cyclopropyl)-amide] the same measures were 6.23 and 5.08. `N#CC1(NC(=O)[C@@H]2C[C@@H](S(=O)(=O)c3cccc(-c4ccc(F)cc4)c3)CN2C(=O)C2(c3ncc(Cl)cc3F)CC2)CC1` [Example 13, (2S,4R)-1-[1-(5-Chloro-3-fluoro-pyridin-2-yl)-cyclopropanecarbonyl]-4-(4′-fluorobiphenyl-3-sulfonyl)-pyrrolidine-2-carboxylic acid (1-cyano-cyclopropyl)-amide]: the pIC50 against human Cat L was 6.61. Still for that read-out and setting: for `N#CC1(NC(=O)[C@@H]2C[C@@H](S(=O)(=O)c3ncccc3Cl)CN2C(=O)C2(c3ncc(Cl)cc3F)CC2)CC1` [Example 14, (2S,4R)-1-[1-(5-Chloro-3-fluoro-pyridin-2-yl)-cyclopropanecarbonyl]-4-(3-chloropyridine-2-sulfonyl)-pyrrolidine-2-carboxylic acid (1-cyano-cyclopropyl)-amide] the value was 5.67. As to `N#CC1(NC(=O)[C@@H]2C[C@H](S(=O)(=O)c3ccc(F)cc3Cl)CN2C(=O)C2(c3ncc(Cl)cc3F)CC2)CC1` [Example 15, (2S,4S)-4-(2-Chloro-4-fluoro-benzenesulfonyl)-1-[1-(5-chloro-3-fluoro-pyridin-2-yl)-cyclopropanecarbonyl]-pyrrolidine-2-carboxylic acid (1-cyano-cyclopropyl)-amide], the pIC50 is 7.96 against human Cathepsin S and 5.77 against human Cat L.

As to `N#CC1(NC(=O)[C@@H]2C[C@@H](Sc3ccc(Cl)cn3)CN2C(=O)C2(c3ncc(Cl)cc3F)CC2)CC1` [Example 17, (2S,4R)-1-[1-(5-Chloro-3-fluoro-pyridin-2-yl)-cyclopropanecarbonyl]-4-(5-chloro-pyridin-2-ylsulfanyl)-pyrrolidine-2-carboxylic acid (1-cyano-cyclopropyl)-amide], the pIC50 is 6.58 at human Cathepsin S and 5.25 against human Cat L.

On to `N#CC1(NC(=O)[C@@H]2C[C@@H](S(=O)(=O)c3ccccn3)CN2C(=O)C2(c3ncc(Cl)cc3F)CC2)CC1` [Example 18, (2S,4R)-1-[1-(5-Chloro-3-fluoro-pyridin-2-yl)-cyclopropanecarbonyl]-4-(pyridine-2-sulfonyl)-pyrrolidine-2-carboxylic acid (1-cyano-cyclopropyl)-amide], for which the pIC50 against human Cathepsin S is 8.37; against human Cat L, 5.46. At human Cat L, `Cc1cccc(S[C@@H]2C[C@@H](C(=O)NC3(C#N)CC3)N(C(=O)C3(c4ncc(Cl)cc4F)CC3)C2)n1` [Example 19, (2S,4R)-1-[1-(5-Chloro-3-fluoro-pyridin-2-yl)-cyclopropanecarbonyl]-4-(6-methyl-pyridin-2-ylsulfanyl)-pyrrolidine-2-carboxylic acid (1-cyano-cyclopropyl)-amide] gave a negative-log IC50 (pIC50) of 5.34. Still for that read-out and setting: for `N#CC1(NC(=O)[C@@H]2C[C@@H](Sc3cc(C(F)(F)F)ccc3Cl)CN2C(=O)C2(c3ncc(Cl)cc3F)CC2)CC1` [Example 26, (2S,4R)-1-[1-(5-Chloro-3-fluoro-pyridin-2-yl)-cyclopropanecarbonyl]-4-(2-chloro-5-trifluoromethyl-phenylsulfanyl)-pyrrolidine-2-carboxylic acid (1-cyano-cyclopropyl)-amide] the value was 7.28. Regarding `Cn1cc(-c2ccc(S(=O)(=O)[C@@H]3C[C@@H](C(=O)NC4(C#N)CC4)N(C(=O)C4(c5ncc(Cl)cc5Cl)CC4)C3)c(Cl)c2)cn1` [Example 40, (2S,4R)-4-[2-Chloro-4-(1-methyl-1H-pyrazol-4-yl)-benzenesulfonyl]-1-[1-(3,5-dichloro-pyridin-2-yl)-cyclopropanecarbonyl]-pyrrolidine-2-carboxylic acid (1-cyano-cyclopropyl)-amide], on human Cathepsin S, the negative-log IC50 (pIC50) was 9.15.

Usually pIC50 stands for the IC50 on a negative log10 scale, so that one unit is a factor of ten.
